This is an account of results in patent publication US10543212B2, “Substituted amines for treating cardiac diseases” (Cardurion Pharmaceuticals, LLC, priority 2017, dated 2020).

Where a name gives a salt, the structure may show the parent alone.

For this assay, the target named is T1, Human full-length CaMKIIδ (Homo sapiens, UniProt Q13557).
T1 construct: Human full-length CaMKIIδ (Cat #02-111) was obtained from Carna Biosciences; GST; purchased Carna Biosciences 02-111
Kind of assay: Human CaMKII enzyme inhibition assay (radiometric kinase assay). Format: biochemical. The following applies: 3 μM compound; 500 nM ATP; 0.5 nM CaMKIIδ; read-out: CaMKIIδ inhibitory activity (%) at 3 μM. Here is the method: In Vitro CaMKIIδ Inhibitory Activity was Evaluated by an Enzyme Assay.
Human CaMKII Enzyme Inhibition Assay
Kinase assay for CaMKIIs was performed using the radiometric assay. Human full-length CaMKIIδ (Cat #02-111) was obtained from Carna Biosciences (Kobe, Japan).
Enzyme reactions were performed in 25 mM HEPES, pH 7.5, with 5 mM magnesium chloride, 1 mM calcium chloride, 10 μg/mL Calmodulin, 2 mM DTT, 0.01% Tween20 and 500 nM ATP (0.2 μCi/well of [γ-33P] ATP) containing 0.5 nM CaMKIIδ and 0.1 μM autophosphorylation peptide (KKALRRQETVDAL)(Toray Research Center).
After incubating the enzyme, peptide, and compounds for 5 min, kinase reactions were initiated by adding ATP, followed by incubation for 60 min at room temperature in a total volume of 50 μL. The reactions were terminated by the addition of 10% trichloroacetic acid (final concentration). The [γ-33P]-phosphorylated proteins were filtered in a Harvest Plate (Merck Millipore) with a Cell Harvester (PerkinElmer) and then free [γ-33P] ATP was washed out with 3% phosphoric acid. The plates were dried, followed by the addition of 40 μl of MicroScintO (PerkinElmer). The radioactivity was counted by a TopCount scintillation counter (PerkinElmer). The signals of the reaction without enzyme were defined as 100% inhibitory activity and those of the reaction without inhibitors as 0% inhibitory activity. In vitro CaMKIIδ inhibitory activity was evaluated by % inhibitory activity of 3 μM compound concentration.

For the compound `Cc1nn(C(C)C)cc1Nc1ncc(-c2ccc(C#N)c(O[C@@H](C)Cn3cncn3)c2)cn1` [Example 358, 4-(2-((1-isopropyl-3-methyl-1H-pyrazol-4-yl)amino)pyrimidin-5-yl)-2-(((2S)-1-(1H-1,2,4-triazol-1-yl)propan-2-yl)oxy)benzonitrile], the inhibition at 3 µM came out at 93%. Under `COc1cc(CNC2CC2)ccc1Nc1ncc(-c2ccc(C#N)c(O[C@@H](C)Cn3cnnn3)c2)cn1` [Example 52, 4-(2-((4-((cyclopropylami-no)methyl)-2-methoxy-phenyl)amino)pyrimidin-5-yl)-2-(((2S)-1-(1H-tetrazol-1-yl)propan-2-yl)oxy)benzonitrile hydrochloride] stands 100%; under `Cc1nn(C)cc1Nc1ncc(-c2ccc(C#N)c(O[C@@H](C)Cn3cncn3)c2)cn1` [Example 357, 4-(2-((1,3-dimethyl-1H-pyrazol-4-yl)amino)pyrimidin-5-yl)-2-(((2S)-1-(1H-1,2,4-triazol-1-yl)propan-2-yl)oxy)benzonitrile], 96%; under `COc1cc(N2CCC(N3CCOCC3)CC2)ccc1Nc1ncc(-c2ccc(C#N)c(O[C@@H](C)Cn3cncn3)c2)cn1` [Example 1, 4-(2-((2-methoxy-4-(4-(morpholin-4-yl)piperidin-1-yl)phenyl)amino)pyrimidin-5-yl)-2-(((2S)-1-(1H-1,2,4-triazol-1-yl)propan-2-yl)oxy)benzonitrile], 99%. Consider `COc1cc(N2CCN(C3COC3)CC2)c(F)cc1Nc1ncc(-c2ccc(Cl)c(O[C@@H](C)Cn3cnnn3)c2)cn1` [Example 211, 5-(4-chloro-3-(((2S)-1-(1H-tetrazol-1-yl)propan-2-yl)oxy)phenyl)-N-(5-fluoro-2-methoxy-4-(4-(oxetan-3-yl)piperazin-1-yl)phenyl)pyrimidin-2-amine], for which the inhibition at 3 µM was determined as 98%.

For `COc1cc(N2CCC(N3CCOCC3)CC2)ccc1Nc1ncc(-c2ccc(C#N)c(O[C@@H](C)Cn3cnnn3)c2)cn1` [Example 10, 4-(2-((2-methoxy-4-(4-(morpholin-4-yl)piperidin-1-yl)phenyl)amino)pyrimidin-5-yl)-2-(((2S)-1-(1H-tetrazol-1-yl)propan-2-yl)oxy)benzonitrile hydrochloride], the inhibition at 3 µM came to 98%. Regarding `C[C@@H](Cn1cnnn1)Oc1cc(-c2cnc(Nc3cnn(C)c3)nc2)ccc1C#N` [Example 410, 4-(2-((1-methyl-1H-pyrazol-4-yl)amino)pyrimidin-5-yl)-2-(((2S)-1-(1H-tetrazol-1-yl)propan-2-yl)oxy)benzonitrile], the inhibition at 3 µM worked out at 99%. Take `COc1cc(C(=O)N2CCOCC2)ccc1Nc1ncc(-c2ccc(C#N)c(O[C@@H](C)Cn3cnnn3)c2)cn1` [Example 82, 4-(2-((2-methoxy-4-(morpholin-4-ylcar-bonyl)phenyl)amino)pyrimidin-5-yl)-2-(((2S)-1-(1H-tetrazol-1-yl)propan-2-yl)oxy)benzonitrile]: the inhibition at 3 µM came out at 98%. `COc1cc(N2CCC(N3C[C@H]4CC[C@@H](C3)O4)CC2)ccc1Nc1ncc(-c2ccc(Cl)c(O[C@@H](C)Cn3cnnn3)c2)cn1` [Example 213, 5-(4-chloro-3-(((2S)-1-(1H-tetrazol-1-yl)propan-2-yl)oxy)phenyl)-N-(2-methoxy-4-(4-((1R,5S)-8-oxa-3-azabicyclo[3.2.1]oct-3-yl)piperidin-1-yl)phenyl)pyrimidin-2-amine]: the inhibition at 3 µM turned out to be 100%. For the compound `C[C@@H](O)Cn1cc(Nc2ncc(-c3ccc(C#N)c(O[C@@H](C)Cn4cncn4)c3)cn2)cn1` [Example 416, 4-(2-((1-((2R)-2-hydroxypropyl)-1H-pyrazol-4-yl)amino)pyrimidin-5-yl)-2-(((2S)-1-(1H-1,2,4-triazol-1-yl)propan-2-yl)oxy)benzonitrile], the inhibition at 3 µM turned out to be 98%. On to `Cc1nn(C)cc1Nc1ncc(-c2ccc(C#N)c(O[C@@H](C)Cn3cnnn3)c2)cn1` [Example 372, 4-(2-((1,3-dimethyl-1H-pyrazol-4-yl)amino)pyrimidin-5-yl)-2-(((2S)-1-(1H-tetrazol-1-yl)propan-2-yl)oxy)benzonitrile], for which the inhibition at 3 µM amounted to 98%. In the case of `COc1nc(N2CCC(N3CCOCC3)CC2)ncc1Nc1ncc(-c2ccc(C#N)c(O[C@@H](C)Cn3cnnn3)c2)cn1` [Example 56, 4-(2-((4-methoxy-2-(4-(morpholin-4-yl)piperidin-1-yl)pyrimidin-5-yl)amino)pyrimidin-5-yl)-2-(((2S)-1-(1H-tetrazol-1-yl)propan-2-yl)oxy)benzonitrile], the inhibition at 3 µM came to 98%.

On to `COc1cc(C(=O)NC2CCOCC2)ccc1Nc1ncc(-c2ccc(C#N)c(O[C@@H](C)Cn3cnnn3)c2)cn1` [Example 87, 4-((5-(4-cyano-3-(((2S)-1-(1H-tetrazol-1-yl)propan-2-yl)oxy)phenyl)pyrimidin-2-yl)amino)-3-methoxy-N-(tetrahydro-2H-pyran-4-yl)benzamide], for which the inhibition at 3 µM was found to be 98%.

With `COc1cc(N2CCC(N3C4CCC3COC4)CC2)ccc1Nc1ncc(-c2ccc(Cl)c(O[C@@H](C)Cn3cnnn3)c2)cn1` [Example 210, 5-(4-chloro-3-(((2S)-1-(1H-tetrazol-1-yl)propan-2-yl)oxy)phenyl)-N-(2-methoxy-4-(4-(3-oxa-8-azabicyclo[3.2.1]oct-8-yl)piperidin-1-yl)phenyl)pyrimidin-2-amine], the inhibition at 3 µM was determined as 100%. For the compound `COc1cc(N2CCC(N3CCOCC3)CC2)ccc1Nc1ncc(-c2ccc(Cl)c(O[C@@H](C)Cn3ccnc3)c2)cn1` [Example 58, 5-(4-chloro-3-(((2S)-1-(1H-imidazol-1-yl)propan-2-yl)oxy)phenyl)-N-(2-methoxy-4-(4-(morpholin-4-yl)piperidin-1-yl)phenyl)pyrimidin-2-amine], the inhibition at 3 µM was 99%. As to `COCCN1CCC(c2ccc(Nc3ncc(-c4ccc(C#N)c(O[C@@H](C)Cn5cnnn5)c4)cn3)c(OC)c2)CC1` [Example 85, 4-(2-((2-methoxy-4-(1-(2-methoxyethyl)piperidin-4-yl)phenyl)amino)pyrimidin-5-yl)-2-(((2S)-1-(1H-tetrazol-1-yl)propan-2-yl)oxy)benzonitrile], the inhibition at 3 µM was 98%. For the compound `C[C@@H](Cn1cncn1)Oc1cc(-c2cnc(Nc3cnn(CC(C)(C)C#N)c3)nc2)ccc1C#N` [Example 365, 4-(2-((1-(2-cyano-2-methylpropyl)-1H-pyrazol-4-yl)amino)pyrimidin-5-yl)-2-(((2S)-1-(1H-1,2,4-triazol-1-yl)propan-2-yl)oxy)benzonitrile], the inhibition at 3 µM turned out to be 98%. As for `COc1cc(N2CCC(N3CCOCC3)CC2)ccc1Nc1ncc(-c2ccc(Cl)c(O[C@@H](C)Cn3cnnn3)c2)cn1` [Example 60, 5-(4-chloro-3-(((2S)-1-(1H-tetrazol-1-yl)propan-2-yl)oxy)phenyl)-N-(2-methoxy-4-(4-(morpholin-4-yl)piperidin-1-yl)phenyl)pyrimidin-2-amine], the inhibition at 3 µM came out at 99%. Under `C[C@@H](Cn1cncn1)Oc1cc(-c2cnc(Nc3cnn(CC(F)(F)F)c3)nc2)ccc1C#N` [Example 362, 2-(((2S)-1-(1H-1,2,4-triazol-1-yl)propan-2-yl)oxy)-4-(2-((1-(2,2,2-trifluoroethyl)-1H-pyrazol-4-yl)amino)pyrimidin-5-yl)benzonitrile] stands 97%. As for `C[C@@H](Cn1ncnn1)Oc1cc(-c2cnc(Nc3cnn(C)c3)nc2)ccc1C#N` [Example 411, 4-(2-((1-methyl-1H-pyrazol-4-yl)amino)pyrimidin-5-yl)-2-(((2S)-1-(2H-tetrazol-2-yl)propan-2-yl)oxy)benzonitrile], the inhibition at 3 µM amounted to 93%. Regarding `COc1cc(C2CCN(C3COC3)CC2)ccc1Nc1ncc(-c2ccc(Cl)c(O[C@@H](C)Cn3cnnn3)c2)cn1` [Example 206, 5-(4-chloro-3-(((2S)-1-(1H-tetrazol-1-yl)propan-2-yl)oxy)phenyl)-N-(2-methoxy-4-(1-(oxetan-3-yl)piperidin-4-yl)phenyl)pyrimidin-2-amine], the inhibition at 3 µM turned out to be 99%. For `COc1cc(C(=O)N2CCC(OC)CC2)ccc1Nc1ncc(-c2ccc(C#N)c(O[C@@H](C)Cn3cnnn3)c2)cn1` [Example 152, 4-(2-((2-methoxy-4-((4-methoxypiperidin-1-yl)carbonyl)phenyl)ami-no)pyrimidin-5-yl)-2-(((2S)-1-(1H-tetrazol-1-yl)propan-2-yl)oxy)benzonitrile], the inhibition at 3 µM amounted to 98%. In the case of `C[C@@H](Cn1cncn1)Oc1cc(-c2cnc(Nc3cn[nH]c3)nc2)ccc1C#N` [Example 379, 4-(2-(1H-pyrazol-4-ylamino)pyrimidin-5-yl)-2-(((2S)-1-(1H-1,2,4-triazol-1-yl)propan-2-yl)oxy)benzonitrile], the inhibition at 3 µM came out at 98%. For `COc1cc(N2CCN(C3COC3)CC2)ccc1Nc1ncc(-c2ccc(Cl)c(O[C@@H](C)Cn3cnnn3)c2)cn1` [Example 197, 5-(4-chloro-3-(((2S)-1-(1H-tetrazol-1-yl)propan-2-yl)oxy)phenyl)-N-(2-methoxy-4-(4-(oxetan-3-yl)piperazin-1-yl)phenyl)pyrimidin-2-amine], the inhibition at 3 µM was determined as 97%.
